Results reported in PubChem BioAssay AID248 (DTP/NCI, 2004).
“And” between values parts separate entries of the source, which are not always exact repeats. Equal entries are not always repeated. Inconclusive results and toxic doses are left out. Rule as the data show it: active = T/C of 150% or more; inactive = T/C below 125%.

System: L1210 leukemia ip in BDF1 mice, survival T/C
Test: NCI In Vivo Anticancer Drug Screen. Data for tumor model L1210 Leukemia (intraperitoneal) in B6D2F1 (BDF1) mice
Details: endpoint: mean survival time, higher = longer survival
Outline: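 Antitumor effect is assessed in tumor-bearing animals. Survival in the compound arm is compared with a vehicle-dosed control arm and expressed as their quotient.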

[1] = dose: 100.0 mg/kg/injection, schedule: Q04DX002 (ip), vehicle: saline with Tween-80
[2] = dose: 200.0 mg/kg/injection, schedule: Q04DX002 (ip), vehicle: saline with Tween-80
[3] = dose: 400.0 mg/kg/injection, schedule: Q04DX002 (ip), vehicle: saline with Tween-80
[4] = dose: 100.0 mg/kg/injection, schedule: Q01DX001 (ip), vehicle: saline
[5] = dose: 12.5 mg/kg/injection, schedule: Q01DX009 (ip), vehicle: saline
[6] = dose: 25.0 mg/kg/injection, schedule: Q01DX009 (ip), vehicle: saline
[7] = dose: 50.0 mg/kg/injection, schedule: Q01DX001 (ip), vehicle: carboxymethylcellulose (CMC)
[8] = dose: 100.0 mg/kg/injection, schedule: Q01DX001 (ip), vehicle: carboxymethylcellulose (CMC)
[9] = dose: 100.0 mg/kg/injection, schedule: Q01DX009 (ip), vehicle: Klucel (hydroxypropylcellulose) (HPC)
[10] = dose: 200.0 mg/kg/injection, schedule: Q01DX001 (ip), vehicle: carboxymethylcellulose (CMC)
[11] = dose: 200.0 mg/kg/injection, schedule: Q01DX009 (ip), vehicle: Klucel (hydroxypropylcellulose) (HPC)
[12] = dose: 400.0 mg/kg/injection, schedule: Q01DX001 (ip), vehicle: carboxymethylcellulose (CMC)
[13] = dose: 400.0 mg/kg/injection, schedule: Q01DX009 (ip), vehicle: Klucel (hydroxypropylcellulose) (HPC)
[14] = dose: 100.0 mg/kg/injection, schedule: Q04DX003 (ip), vehicle: Klucel (hydroxypropylcellulose) (HPC)
[15] = dose: 200.0 mg/kg/injection, schedule: Q04DX003 (ip), vehicle: Klucel (hydroxypropylcellulose) (HPC)
[16] = dose: 400.0 mg/kg/injection, schedule: Q04DX003 (ip), vehicle: Klucel (hydroxypropylcellulose) (HPC)
[17] = dose: 200.0 mg/kg/injection, schedule: Q01DX001 (ip), vehicle: saline
[18] = dose: 50.0 mg/kg/injection, schedule: Q01DX009 (ip), vehicle: saline with Tween-80
[19] = dose: 100.0 mg/kg/injection, schedule: Q01DX009 (ip), vehicle: saline with Tween-80
[20] = dose: 200.0 mg/kg/injection, schedule: Q01DX009 (ip), vehicle: saline with Tween-80
[21] = dose: 6.25 mg/kg/injection, schedule: Q01DX009 (ip), vehicle: saline

Measured: T/C

NCCN=C(N)C(N)=NCCN
inactive: dose: 100.0 mg/kg/injection, schedule: Q04DX002 (ip), vehicle: saline 100 % of control | dose: 200.0 mg/kg/injection, schedule: Q04DX002 (ip), vehicle: saline 103 % of control | dose: 400.0 mg/kg/injection, schedule: Q04DX002 (ip), vehicle: saline 110 % of control

[CH3][Sb]1([CH3])([CH3])[O]S(=O)(=O)[O]1
inactive: dose: 75.0 mg/kg/injection, schedule: Q01DX001 (ip), vehicle: saline 97 % of control | dose: 150.0 mg/kg/injection, schedule: Q01DX001 (ip), vehicle: saline 102 % of control | dose: 300.0 mg/kg/injection, schedule: Q01DX001 (ip), vehicle: saline 105 % of control

C[n+]1cccc2cc(C(=O)O)ccc21
inactive: dose: 50.0 mg/kg/injection, schedule: Q01DX009 (ip), vehicle: acetone 101 % of control | dose: 100.0 mg/kg/injection, schedule: Q01DX009 (ip), vehicle: acetone 97 % of control | dose: 200.0 mg/kg/injection, schedule: Q01DX009 (ip), vehicle: acetone 93 % of control

CCCN(CCC)S(=O)(=O)CC
inactive: [1] 99 % of control | [2] 92 % of control | [3] 99 % of control

O=[N+]([O-])c1ccc(-c2nnc(-c3ccccc3O)o2)cc1
inactive: dose: 50.0 mg/kg/injection, schedule: Q04DX002 (ip), vehicle: saline with Tween-80 92 % of control | [1] 89 % of control | [2] 89 % of control | [3] 89 % of control

S=c1[nH]ccs1
inactive: dose: 25.0 mg/kg/injection, schedule: Q01DX001 (ip), vehicle: saline 100 % of control | dose: 50.0 mg/kg/injection, schedule: Q01DX001 (ip), vehicle: saline 98 % of control | [4] 98 % of control and 99 % of control

CCC(C)C(C(=O)OCCC[N+]1(C)CCCCC1)c1ccccc1 (configuration not stated)
inactive: [5] 96 % of control | dose: 12.5 mg/kg/injection, schedule: Q04DX003 (ip), vehicle: saline 96 % of control | [6] 100 % of control | dose: 25.0 mg/kg/injection, schedule: Q04DX003 (ip), vehicle: saline 96 % of control | dose: 50.0 mg/kg/injection, schedule: Q01DX009 (ip), vehicle: saline 94 % of control | dose: 50.0 mg/kg/injection, schedule: Q04DX003 (ip), vehicle: saline 94 % of control

CCCCCCCCCCCCCCCCCCOCCCCCCCCCCCC
inactive: dose: 100.0 mg/kg/injection, schedule: Q01DX001 (ip), vehicle: other 97 % of control | dose: 200.0 mg/kg/injection, schedule: Q01DX001 (ip), vehicle: other 92 % of control | dose: 400.0 mg/kg/injection, schedule: Q01DX001 (ip), vehicle: other 93 % of control

CC(C)(C)N(CCO)CC1C(c2ccccc2)C1c1ccccc1 (configuration not stated)
inactive: dose: 12.5 mg/kg/injection, schedule: Q04DX002 (ip), vehicle: Klucel (hydroxypropylcellulose) (HPC) 103 % of control | dose: 25.0 mg/kg/injection, schedule: Q04DX002 (ip), vehicle: Klucel (hydroxypropylcellulose) (HPC) 103 % of control | dose: 50.0 mg/kg/injection, schedule: Q04DX002 (ip), vehicle: Klucel (hydroxypropylcellulose) (HPC) 97 % of control

O=C(OC1CC2CC1C1CCCC21)c1ccc([N+](=O)[O-])cc1 (configuration not stated)
inactive: [7] 90 % of control | [8] 87 % of control | [9] 104 % of control | [10] 92 % of control | [11] 100 % of control | [12] 95 % of control | [13] 97 % of control

O=[N+]([O-])c1ccc(/C=C/c2ccccc2)cc1
inactive: [9] 97 % of control | [14] 109 % of control | [11] 95 % of control | [15] 98 % of control | [13] 96 % of control | [16] 105 % of control

NC(N)=N/N=C/C(N)(/C=N/N=C(N)N)/C=N/N=C(N)N
inactive: dose: 120.0 mg/kg/injection, schedule: Q01DX Z (oral), vehicle: saline 106 % of control | dose: 240.0 mg/kg/injection, schedule: Q01DX Z (oral), vehicle: saline 114 % of control | dose: 480.0 mg/kg/injection, schedule: Q01DX Z (oral), vehicle: saline 113 % of control | dose: 960.0 mg/kg/injection, schedule: Q01DX Z (oral), vehicle: saline 106 % of control

Cc1ccc(NC(=O)c2cccc(C(=O)Nc3ccc(C)c(C)c3)c2)cc1C
inactive: [9] 94 % of control | [14] 91 % of control | [11] 104 % of control | [15] 97 % of control | [13] 94 % of control | [16] 91 % of control

O=C(O)C12CC=CCC1(C(=O)O)CC=CC2 (configuration not stated)
inactive: [7] 96 % of control | [8] 98 % of control | [10] 102 % of control | [12] 98 % of control

CC(=O)OCCC/C(=C/c1ccc2c(c1)OCO2)[N+](=O)[O-]
inactive: [4] 104 % of control | [17] 101 % of control | dose: 400.0 mg/kg/injection, schedule: Q01DX001 (ip), vehicle: saline 98 % of control

O=c1c2ccccc2[nH]c(=S)n1C1CCCCC1
inactive: [9] 99 % of control | [14] 90 % of control | [11] 103 % of control | [15] 101 % of control | [13] 98 % of control | [16] 100 % of control

CCOc1ccc([N+](=O)[O-])cc1CNCCCl
inactive: dose: 25.0 mg/kg/injection, schedule: Q04DX003 (ip), vehicle: Klucel (hydroxypropylcellulose) (HPC) 102 % of control | dose: 50.0 mg/kg/injection, schedule: Q04DX003 (ip), vehicle: Klucel (hydroxypropylcellulose) (HPC) 98 % of control | [14] 98 % of control and 104 % of control

Nc1sc(=S)nc2[nH]ncc12
inactive: dose: 50.0 mg/kg/injection, schedule: Q01DX009 (ip), vehicle: Klucel (hydroxypropylcellulose) (HPC) 90 % of control | [9] 96 % of control | [14] 98 % of control | [11] 93 % of control | [15] 95 % of control | [16] 95 % of control

CCCCCCCCCCOS(C)=O (configuration not stated)
inactive: [18] 100 % of control | [19] 92 % of control | [20] 88 % of control

C=CCc1cccc(OC)c1OCCN(CC)CC
inactive: [21] 111 % of control | [5] 102 % of control | [6] 100 % of control

COc1ccccc1C1OCC(C)(C)CO1
inactive: [9] 90 % of control | [14] 109 % of control | [11] 95 % of control | [15] 103 % of control | [13] 92 % of control | [16] 108 % of control

O=C(c1ccc([N+](=O)[O-])cc1)C1NC1c1ccc([N+](=O)[O-])cc1 (configuration not stated)
inactive: [7] 108 % of control | [8] 100 % of control | [10] 105 % of control | [12] 97 % of control

Cc1c2ccccc2c(CN(C)CC(=O)O)c2ccccc12
inactive: [18] 92 % of control | [19] 90 % of control | [20] 92 % of control

CCSCCO
inactive: dose: 100.0 mg/kg/injection, schedule: Q04DX003 (ip), vehicle: saline 92 % of control | dose: 200.0 mg/kg/injection, schedule: Q04DX003 (ip), vehicle: saline 102 % of control | dose: 400.0 mg/kg/injection, schedule: Q04DX003 (ip), vehicle: saline 100 % of control

O=C1NC2(CCCCC2)C(=O)N1CCN(CCCl)CCCl
inactive: dose: 1.3 mg/kg/injection, schedule: Q01DX009 (ip), vehicle: saline 96 % of control | dose: 2.0 mg/kg/injection, schedule: Q01DX009 (ip), vehicle: saline 107 % of control | dose: 4.1 mg/kg/injection, schedule: Q01DX009 (ip), vehicle: saline 117 % of control | [21] 119 % of control | dose: 9.3 mg/kg/injection, schedule: Q01DX009 (ip), vehicle: saline 124 % of control | dose: 16.0 mg/kg/injection, schedule: Q04DX003 (ip), vehicle: saline 122 % of control | [6] 106 % of control

CN(C)C(C#N)C(=O)c1ccc(Cl)cc1 (configuration not stated)
inactive: [4] 91 % of control | [17] 95 % of control

O=[N+]([O-])c1ccc(/C=C/C=C/c2ccc(Cl)cc2Cl)cc1
inactive: [19] 94 % of control | [20] 94 % of control

O=C1C=CC(=O)N1c1ccc2c(c1)Cc1ccccc1-2
inactive: dose: 50.0 mg/kg/injection, schedule: Q04DX003 (ip), vehicle: saline with Tween-80 98 % of control | dose: 100.0 mg/kg/injection, schedule: Q04DX003 (ip), vehicle: saline with Tween-80 108 % of control and 115 % of control | dose: 200.0 mg/kg/injection, schedule: Q04DX003 (ip), vehicle: saline with Tween-80 87 % of control
